Experimental data published in patent publication US4547507A, “Benzothiopyranopyridinones” (Roussel Uclaf, priority 1982, dated 1985).

Test system: rat cortical α2 receptor
Experiment: Test C: [3H]Dihydroergocryptine displacement from rat cortical α2 receptor binding sites
Conditions: cortical membranes, under the conditions of assay
Protocol: Test C--[^3 H]Dihydroergocryptine displacement from rat cortical α2 *receptor binding sites
(a) Radioligand--[9,10(n)-^3 H]9,10-Dihydroergocryptine (Amersham International, TRK 555, 17.5 Ci/mmole) was used as a 1 μCi/1 μl solution and this stock solution was diluted 1/6250 in assay buffer and 0.1 ml volumes of this were added to 2 ml binding assays. =0.45 nM and =0.016 μCi/binding assay
*In cortical membranes, [^3 H]dihydroergocryptine binds to both α1 and α2 receptor binding sites under the conditions of assay described here, approximately 80% of the binding is associated with α2 receptors.
(b) Membrane preparation--As for Test B
(c) Non-specific binding--As for Test B
(d) Displacing compounds--As for Test B
(e) Assay protocol--As for Test B with the exception that the binding assays were incubated at 25° C. for 45 minutes in the dark.

[3H]C1C(C(=O)NC2(C(C)C)OC3(O)C4CCCN4C(=O)C(CC(C)C)N3C2=O)CN(C)C2Cc3c[nH]c4cccc(c34)C12[3H] (stereo not shown) [[^3 H]dihydroergocryptine, [9,10(n)-^3 H]9,10-Dihydroergocryptine, reference compound]
share of the radioligand binding associated with α2 receptors: approximately 80%
